In US20240307430A1, “PHARMACEUTICAL COMPOSITION CONTAINING NICOTINAMIDE ADENINE DINUCLEOTIDE (NAD) AND CD38 INHIBITOR AND APPLICATION THEREOF” (HEFEI KNATURE BIO-PHARM CO., LTD., priority 2021, published 2024):

What was measured:
CD38 [1] = target: T1, CD38 (Homo sapiens, UniProt P28907); conditions: from the literature, Cell Metabolism 2018; cited from earlier work
T1 sequence (P28907 1-300): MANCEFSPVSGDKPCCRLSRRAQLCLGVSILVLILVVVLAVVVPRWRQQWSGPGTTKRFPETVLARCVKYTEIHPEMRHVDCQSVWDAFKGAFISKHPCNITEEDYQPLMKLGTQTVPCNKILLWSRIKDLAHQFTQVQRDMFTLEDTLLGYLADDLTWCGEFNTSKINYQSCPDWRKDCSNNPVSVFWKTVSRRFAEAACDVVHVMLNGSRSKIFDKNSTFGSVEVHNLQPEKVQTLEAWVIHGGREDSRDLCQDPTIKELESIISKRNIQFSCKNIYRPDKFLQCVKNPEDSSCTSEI

[2] = test system: Doxorubicin-induced cardiotoxicity (DIC) model; test: Echocardiography of cardiac function (EF, FS) in the DIC model; type: in vivo, C57BL/6 male mice
Protocol: (§1) Circulation. 2016; 133:1668-1687”. 8-week-old C57BL/6 male mice were injected with 5 mg/kg of doxorubicin (DOX) or normal saline via the tail vein, and the administration was performed once a week for four consecutive weeks. Four weeks after the last administration, the mice were subjected to echocardiography to detect the cardiac function, and myocardial tissues of the mice were taken to detect the NAD^+ content. Mice were intraperitoneally injected with the same volume of saline as that of the experimental group once a day, and the duration cycle was the same as that of the DIC model. After administration, mice were subjected to echocardiography to detect the cardiac function, and myocardial tissues were taken from mice to detect NAD^+ content. CD38 inhibitor 78c was dissolved with DMSO. Mice were injected intraperitoneally with 10 mg/kg CD38 inhibitor 78c at 3 hours before doxorubicin injection in the DIC model. 78c was administered once a day until the endpoint of the DIC model. At the end of the model, echocardiography was performed on the mice to detect the cardiac function of the mice, and myocardial tissues were taken from the mice to detect NAD^+ content. NAD was dissolved in saline. Mice were injected intraperitoneally with 50 mg/kg NAD at 3 hours before doxorubicin injection in the DIC model. NAD was administered once a day, which lasted until the endpoint of the DIC model. At the end of the model, mice were subjected to echocardiography to detect cardiac function, and myocardial tissues were taken from mice to detect NAD^+ content. CD38 inhibitor 78c was dissolved in DMSO. Mice were injected intraperitoneally with 50 mg/kg NAD and 10 mg/kg CD38 inhibitor 78c at 3 hours before doxorubicin injection in the DIC model. The CD38 inhibitor 78c was administered once a day, which lasted until the endpoint of the DIC model. At the end of the model, mice were subjected to echocardiography to detect cardiac function, and myocardial tissues were taken from mice to detect NAD^+ content.

[3] = test system: Doxorubicin-induced cardiotoxicity (DIC) model; test: NAD+ content of cardiac tissues in the doxorubicin-induced cardiotoxicity (DIC) model; type: in vivo, C57BL/6 male mice; conditions: FIG. 2
Protocol: as §1, with “At the end of the model, mice were subjected to echocardiography to detect cardiac function, and myocardial tissues were taken from mice to detect NAD^+ content. CD38 inhibitor 78c was dissolved in DMSO. Mice were injected intraperitoneally with 50 mg/kg NAD and 10 mg/kg CD38 inhibitor 78c at 3 hours before doxorubicin injection in the DIC model. The CD38 inhibitor 78c was administered once a day, which lasted until the endpoint of the DIC model. At the end of the model, mice were subjected to echocardiography to detect cardiac function, and myocardial tissues were taken from mice to detect NAD^+ content.” left out

CD38 [4] = test: CD38 expression in mouse heart tissues after doxorubicin treatment; type: in vivo, mice; conditions: after doxorubicin treatment (5 mg/kg via tail vein, once a week for four weeks); mainly in CD31-positive endothelial cell region; FIG. 1
Protocol: 8-week-old C57BL/6 male mice were injected with 5 mg/kg of doxorubicin (DOX) or normal saline via the tail vein, and the administration was performed once a week for four consecutive weeks. Four weeks after the last administration, the mice were subjected to echocardiography to detect the cardiac function, and myocardial tissues of the mice were taken to detect the NAD^+ content.

COCCOC1CCC(Nc2cc(=O)n(C)c3ccc(-c4cncs4)cc23)CC1 (stereo not shown) [compound 78c]
inhibitory activity against CD38 (CD38 [1]): has been demonstrated | cardiac function (EF, FS) ([2]; DOX-treated mice, i.p. once a day from 3 hours before doxorubicin, NAD 50 mg/kg, 78c 10 mg/kg, FIGS. 3a and 3b): improved cardiac function | cardiac NAD+ content ([3]; DOX-treated mice, i.p. once a day from 3 hours before doxorubicin, NAD 50 mg/kg, 78c 10 mg/kg): modestly increased

COc1cccc2c1C(=O)c1c(O)c3c(c(O)c1C2=O)C[C@@](O)(C(=O)CO)C[C@@H]3O[C@H]1C[C@H](N)[C@H](O)[C@H](C)O1 [doxorubicin]
CD38 expression in mouse heart tissues (CD38 [4]): significantly increased | ejection fraction (EF) of the mouse heart ([2]; doxorubicin 5 mg/kg via tail vein once a week for four weeks, echocardiography, FIG. 3a): significantly reduced | fractional shortening (FS) of the mouse heart ([2]; doxorubicin 5 mg/kg via tail vein once a week for four weeks, echocardiography, FIG. 3b): significantly reduced | NAD+ content of the cardiac tissues ([3]; doxorubicin 5 mg/kg via tail vein once a week for four weeks, compared with the control group): significant decrease
